Experiments:
[1] = tested on: pERK1/2 (Thr202/Tyr204) in Miapaca2 cells; assay: Assay of intracellular pERK1/2 (Thr202/Tyr204) phosphorylation; type: cell-based; details: pERK1/2 (Thr202/Tyr204) HTRF
Method in brief: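 HTRF read-out (665/615 nm) of phospho-ERK1/2 Thr202/Tyr204 in lysates from Miapaca2 cells exposed for 2 h to 3-fold compound dilutions at 0.5% final DMSO. Controls: lysis buffer without cells and DMSO-treated cells; IC50 from four-parameter logistic fit.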

[2] = molecular target: Human full-length SHP2 recombinant protein (Homo sapiens (Human), UniProt Q06124); assay: Assay of full-length SHP2 phosphatase activity; type: biochemical; details: DiFMUP substrate, with activating peptide
Method in brief: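 Readout: DiFMUP hydrolysis fluorescence (355/460 nm) after 60 min at 25 °C, following 30 min RT preincubation of compound with peptide-activated full-length human SHP2. Controls were 1% DMSO with or without enzyme; IC50 by four-parameter logistic fit.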

Miapaca2 3D spheroids = assay: Assay of cell proliferation on Miapaca2 3D spheroids; type: cell-based; details: CellTiter-Glo 3D, 5 days treatment
Procedure: Example 4 Assay of Cell Proliferation on Miapaca2 3D Spheroids
1. Reagents and Materials • CellTiter-Glo® 3D Cell Viability Assay Kit: Promega, Cat #G9683; • CellCarrier Spheroid ULA 96-well plate: Corning, Cat #4515; • Instrument: Envision, Perkinelmer; • Cell line: Miapaca2, ATCC, Cat #CRL-1420.
2. Preparation of Reaction Solutions • The test compound was dissolved in DMSO and diluted with DMSO to 3000.0 μM, and the compound was further 3-fold diluted with DMSO to: 1000.0, 333.3, 111.1, 37.0, 12.3, 4.1, and 1.4 μM. Then 2 μL of the compound at different dilution concentrations was added to 198 μL of a 1640 medium to prepare a 10× test compound, wherein DMSO was at the concentration of 1% (DMSO was at the final concentration of 0.1%).
3. Experimental Methods • Day0: Digest cells and count cell numbers. Miapaca2 cells were inoculated into a spheroid ULA 96-well plate at a density of 300 cells/well at 100 μL/well and cultured in a cell incubator at 5% CO2 and 37° C. • Day2: The cell spheroids formed at day2. Add 10 μL of 10× test compounds to the 96-well plate. To the cell positive control well was added 10 μL of 1% DMSO 1640 medium. Incubate the cell spheroids in a cell incubator at 5% CO2 and 37° C. for additional 5 days. • Cell viability assay: Add 50 μL of CellTiter-Glo reagent to each well, place the plate in a microplate shaker, and lysis under shaking at 900 rpm at room temperature for 5 minutes. Then incubate the plate at room temperature in the dark for 30 minutes. • The luminescene of each well was detected on Envision2104.
Cell Survial %=(Lum(d7 treatment)−Lum(d2 cell))/(Lum(d7 cell)−Lum(d2 cell))×100
Wherein: • Lum(d7 treatment) refers to the luminescene of the test compound treated cells on day7; • Lum(d2 cell) refers to the luminescene of the 0.1% DMSO treated Miapaca2 cells on day2; • Lum(d7 cell) refers to the luminescene of the 0.1% DMSO treated Miapaca2 cells on day7. • IC50 values were calculated following formula 205: y=A+((B−A)/(1+((C/X)^D))), by using the XL-Fit 5.0 software.

[3] = Homo sapiens, MIA PaCa-2, 120 h

Row | SMILES | IC50 ([1]; Homo sapiens, MIA PaCa-2, 2 h) [nM] | IC50 [2] [nM] | IC50 (Miapaca2 3D spheroids; [3]) [nM] | IC50 ([1]; 2 hours) [nM] | IC50 (Miapaca2 3D spheroids) [nM]
1 | NC(=O)NCC#Cc1ccc2c(c1)[C@@H](N)C1(CCN(c3cnc(Sc4ccnc(N)c4Cl)c(N)n3)CC1)C2 [Compound 159, (S)-1-(3-(1-amino-1′-(6-amino-5-((2-amino-3-chloropyridin-4-yl)thio)pyrazin-2-yl)-1,3-dihydrospiro[indene-2,4′-piperidin]-6-yl)prop-2-yn-1-yl)urea] | 5 | 1 | 6 |  | 
2 | COCC#Cc1cc(F)c2c(c1)[C@@H](N)C1(CCN(c3nc(C)n(-c4cccc(Cl)c4Cl)c(=O)c3C)CC1)C2 [Compound 160] | 56 | 13 | 41 |  | 
3 | C#Cc1ccc2c(c1)[C@@H](N)C1(CCN(c3nc(C)n(-c4cccc(Cl)c4Cl)c(=O)c3F)CC1)C2 [Compound 165] | 39 | 6 | 71 |  | 
4 | COCC#Cc1cc(F)c2c(c1)[C@@H](N)C1(CCN(c3cc(=O)n(-c4cccc(Cl)c4Cl)c(C)n3)CC1)C2 [Compound 166] | 38 | 6 | 110 |  | 
5 | C#Cc1cc(F)c2c(c1)[C@@H](N)C1(CCN(c3nc(C)n(-c4cccc(Cl)c4Cl)c(=O)c3C)CC1)C2 [Compound 168] | 34 | 10 | 77 |  | 
6 | CC#Cc1ccc2c(c1)[C@@H](N)C1(CCN(c3nc(C)n(-c4cccc(Cl)c4Cl)c(=O)c3F)CC1)C2 [Compound 170] | 143 | 9 | 162 |  | 
7 | COCC#Cc1cc(F)c2c(c1)[C@@H](N)C1(CCN(c3ncc(Sc4ccnc(N)n4)c4nccn34)CC1)C2 [Compound 171] | 38 | 6 | 39 |  | 
8 | CNC(=O)C#Cc1ccc2c(c1)[C@@H](N)C1(CCN(c3ncc(Sc4ccnc(N)c4Cl)c4nccn34)CC1)C2 [Compound 172] | 8 | 1 | 9 |  | 
9 | CNC(=O)C#Cc1ccc2c(c1)[C@@H](N)C1(CCN(c3cc(=O)n(-c4cccc(Cl)c4Cl)c(C)n3)CC1)C2 [Compound 173] | 18 | 1 | 24 |  | 
10 | CNC(=O)C#Cc1ccc2c(c1)[C@@H](N)C1(CCN(c3nc(C)n(-c4cccc(Cl)c4Cl)c(=O)c3C)CC1)C2 [Compound 174] | 33 | 6 | 53 |  | 
11 | COCC#Cc1cc(F)c2c(c1)[C@@H](N)C1(CCN(c3ncc(Sc4ccnc(C)n4)c4nccn34)CC1)C2 [Compound 175] | 122 | 14 | 100 |  | 
12 | C#Cc1cc(F)c2c(c1)[C@@H](N)C1(CCN(c3ncc(Sc4ccnc(N)c4Cl)n4nccc34)CC1)C2 [Compound 176] | 41 | 38 | 97 |  | 
13 | CNC(=O)C#Cc1ccc2c(c1)[C@@H](N)C1(CCN(c3ncc(Sc4ccnc(N)c4Cl)n4nccc34)CC1)C2 [Compound 177] | 7 | 2 | 4 |  | 
14 | C#Cc1ccc2c(c1)[C@@H](N)C1(CCN(c3ncc(Sc4ccnc(C)n4)n4nccc34)CC1)C2 [Compound 178] | 48 | 2 | 41 |  | 
15 | C#Cc1ccc2c(c1)[C@@H](N)C1(CCN(c3ncc(Sc4ccnc(N)c4Cl)n4ncnc34)CC1)C2 [Compound 179] | 112 | 4 | 65 |  | 
16 | C#Cc1ccc2c(c1)[C@@H](N)C1(CCN(c3cc(=O)n(-c4ccc(C#N)c(OC)c4Cl)c(C)n3)CC1)C2 [Compound 183] |  | 2 | 68 | 50 | 
17 | C#Cc1ccc2c(c1)[C@@H](N)C1(CCN(c3cc(=O)n(-c4ccc(C#N)c(Cl)c4Cl)c(C)n3)CC1)C2 [Compound 184] |  | 3 | 96 | 67 | 

More lines, now with the values ahead:

Row | IC50 ([1]; Homo sapiens, MIA PaCa-2, 2 h) [nM] | IC50 [2] [nM] | IC50 (Miapaca2 3D spheroids; [3]) [nM] | IC50 ([1]; 2 hours) [nM] | IC50 (Miapaca2 3D spheroids) [nM] | SMILES
18 | 3 | 1 | 3 |  |  | CNC(=O)C#Cc1ccc2c(c1)[C@@H](N)C1(CCN(c3nc(N)c(Sc4ccnc(N)c4Cl)nc3C)CC1)C2 [Compound 187]
19 | 14 | 5 | 47 |  |  | CNC(=O)C#Cc1ccc2c(c1)[C@@H](N)C1(CCN(c3nc(N)c(Sc4ccnc(OC)c4Cl)nc3C)CC1)C2 [Compound 188]
20 | 7 | 1 | 15 |  |  | CNC(=O)C#Cc1ccc2c(c1)[C@@H](N)C1(CCN(c3nc(N)c(Sc4ccnc(C)c4Cl)nc3C)CC1)C2 [Compound 189]
21 | 18 | 1 | 36 |  |  | Cc1nc(N2CCC3(CC2)Cc2ccc(C#CC(=O)N(C)C)cc2[C@H]3N)cc(=O)n1-c1cccc(Cl)c1Cl [Compound 194]
22 | 11 | 1 | 30 |  |  | Cc1c(N2CCC3(CC2)Cc2ccc(C#CC(=O)N(C)C)cc2[C@H]3N)nc(C)n(-c2cccc(Cl)c2Cl)c1=O [Compound 195]
23 | 8 | 3 | 21 |  |  | CN(C)C(=O)C#Cc1ccc2c(c1)[C@@H](N)C1(CCN(c3ncc(Sc4ccnc(N)c4Cl)n4nccc34)CC1)C2 [Compound 196]
24 | 29 | 3 | 38 |  |  | COCC#Cc1ccc2c(c1)[C@@H](N)C1(CCN(c3cc(=O)n(-c4ccc(C#N)c(OC)c4F)c(C)n3)CC1)C2 [Compound 197]
25 | 5 | 1 | 12 |  |  | CNC(=O)C#Cc1ccc2c(c1)[C@@H](N)C1(CCN(c3nc(C)c(Sc4ccnc(N)c4Cl)nc3CO)CC1)C2 [Compound 199]
26 |  | 1 | 46 | 40 |  | CNC(=O)C#Cc1ccc2c(c1)[C@@H](N)C1(CCN(c3cc(=O)n(-c4ccc(F)c(F)c4Cl)c(C)n3)CC1)C2 [Compound 202]
27 | 7 | 2 | 16 |  |  | Cc1nc(Sc2ccnc(N)c2Cl)c(N)nc1N1CCC2(CC1)Cc1ccc(C#CC(=O)N(C)C)cc1[C@H]2N [Compound 203]
28 | 54 | 6 | 121 |  |  | COc1nccc(Sc2nc(C)c(N3CCC4(CC3)Cc3ccc(C#CC(=O)N(C)C)cc3[C@H]4N)nc2N)c1Cl [Compound 204]
29 |  | 12 |  | 29 | 68 | C#Cc1ccc2c(c1)[C@@H](N)C1(CCN(c3ncc(Sc4ccnc(N)c4Cl)c(N)n3)CC1)C2 [Compound 205]
30 | 69 | 3 | 78 |  |  | CC#Cc1ccc2c(c1)[C@@H](N)C1(CCN(c3cc(=O)n(-c4cccc(OC)c4Cl)c(C)n3)CC1)C2 [Compound 206]
31 | 45 | 1 | 28 |  |  | CNC(=O)C#Cc1ccc2c(c1)[C@@H](N)C1(CCN(c3nc(N)c(Sc4ccnc(N)n4)nc3C)CC1)C2 [Compound 216]
32 | 7 | 3 | 6 |  |  | CCNC(=O)C#Cc1ccc2c(c1)[C@@H](N)C1(CCN(c3nc(N)c(Sc4ccnc(N)c4Cl)nc3C)CC1)C2 [Compound 219]
33 | 6 | 4 | 15 |  |  | CNC(=O)C#Cc1ccc2c(c1)[C@@H](N)C1(CCN(c3nc(N)c(Sc4ccnc(N)c4Cl)nc3Cl)CC1)C2 [Compound 222, (S)-3-(1-amino-1′-(6-amino-5-((2-amino-3-chloropyridin-4-yl)thio)-3-chloropyrazin-2-yl)-1,3-dihydrospiro[indene-2,4′-piperidin]-6-yl)-N-methylpropiolamide]
34 | 6 | 2 | 2 |  |  | Cc1nc(Sc2ccnc(N)c2Cl)c(N)nc1N1CCC2(CC1)Cc1ccc(C#CC(=O)NC3CC3)cc1[C@H]2N [Compound 225]
35 | 2 | 1 | 0.4 |  |  | CCNC(=O)C#Cc1ccc2c(c1)[C@@H](N)C1(CCN(c3cnc(Sc4ccnc(N)c4Cl)c(N)n3)CC1)C2 [Compound 226]
36 | 2 | 1 | 0.4 |  |  | CNC(=O)C#Cc1ccc2c(c1)[C@@H](N)C1(CCN(c3cnc(Sc4ccnc(N)c4Cl)cn3)CC1)C2 [Compound 227]

— patent US20240140931A1, “TRICYCLIC COMPOUNDS AND USES THEREOF” (HUTCHMED LIMITED, priority 2021, published 2024)
